# From US20210212913A1, “COSMETIC COMPOSITION FOR PROMOTING SKIN EXFOLIATION” (LG HOUSEHOLD & HEALTH CARE LTD., priority 2017, published 2021)
# Test system: porcine skin stratum corneum
# Experiment: porcine skin stratum corneum evaluation (exfoliation evaluation)
# Assay type: cell-based, pig
# Details: 6 mm porcine skin sample, 100 ul sample, 37° C. and 50% humidity for a day; result in words (values only in figures)
# Method: For the porcine skin stratum corneum evaluation of the present disclosure, the exfoliation evaluation method mentioned in Journal of the European Academy of Dermatology and Venereology, 2014, 28, 415-423 was modified and used. Specifically, a sample of 6 mm diameter from 1 mm thick skin of a pig, and the like, was taken with a biopsy tool, and it was placed in a 96-well plate, and after washing it with phosphate buffered saline (PBS) once, 100 ul of the sample to be tested was added. The present sample was stored under the conditions of 37° C. and 50% humidity for a day, and then the number of exfoliated stratum corneum was measured with a cell counter and a sample containing only water was plotted as a negative control group and 10% gluconolactone […] was plotted as a positive control group. The result was shown in the fold increase compared to the value of the result of gluconolactone 10% pH 6 for relative comparison.
smiles,measurement,value
NC(=O)NC1NC(=O)NC1=O (stereo not shown) [allantoin],"exfoliation ability (number of exfoliated stratum corneum, fold increase compared to gluconolactone 10% pH 6)",did not have high efficacy when used alone
